Assays:
[1] = target: glucosylceramide synthase (GCS) (Homo sapiens (Human), UniProt Q16739); assay: Evaluation of inhibitory activities against GCS (enzyme reaction with A549 cell lysate, NBD C6-ceramide, HPLC fluorescence); assay type: biochemical; conditions: GCS activity in A549 cell lysate, 37° C. for 90 minutes
Outline: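 Lysate of A549 cells in 50 mM HEPES pH 7.3 incubated with test compound and NBD C6-ceramide at 37 °C for 90 min; lipids extracted with chloroform/methanol and GlcCer and ceramide peaks quantified by HPLC fluorescence. Activity from GlcCer area fraction, normalised between DMSO and ibiglustat controls.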

GM1 production = assay: cells; assay type: cell-based; conditions: Homo sapiens, Jurkat, 72 h

glucosylceramide synthase (GCS), sequence (Q16739 whole entry, looked up): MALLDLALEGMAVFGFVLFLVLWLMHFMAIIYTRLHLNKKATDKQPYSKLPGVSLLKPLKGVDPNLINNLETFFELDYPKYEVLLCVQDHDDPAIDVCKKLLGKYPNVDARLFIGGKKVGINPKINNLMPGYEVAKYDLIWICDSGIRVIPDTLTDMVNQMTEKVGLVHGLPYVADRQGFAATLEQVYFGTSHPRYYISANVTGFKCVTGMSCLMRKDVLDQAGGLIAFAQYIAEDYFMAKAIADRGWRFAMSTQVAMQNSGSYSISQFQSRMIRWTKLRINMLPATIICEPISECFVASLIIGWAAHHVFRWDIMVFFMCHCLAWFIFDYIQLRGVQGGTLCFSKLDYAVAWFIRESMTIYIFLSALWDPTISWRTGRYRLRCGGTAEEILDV

Row | SMILES | IC50 [1] | IC50 (GM1 production)
1 | CC1(C)CCc2ccc(-c3ccccc3Cl)cc2C1NC(=O)O[C@@H]1CN2CCC1CC2 (stereo partly drawn) [Example 160, (S)-quinuclidin-3-yl (7-(2-chlorophenyl)-2,2-dimethyl-1,2,3,4-tetrahydronaphthalen-1-yl)carbamate] | 0.0145 µM | 0.0677 µM
2 | CC1(C)CCc2ccc(-c3ccccc3C(F)(F)F)cc2C1NC(=O)O[C@@H]1CN2CCC1CC2 (stereo partly drawn) [Example 161, (S)-quinuclidin-3-yl (2,2-dimethyl-7-(2-(trifluoromethyl)phenyl)-1,2,3,4-tetrahydronaphthalen-1-yl)carbamate] | 0.0265 µM | 0.122 µM
3 | CC1(C)CCc2ccc(-c3ccccc3OC(F)(F)F)cc2C1NC(=O)O[C@@H]1CN2CCC1CC2 (stereo partly drawn) [Example 162, (S)-quinuclidin-3-yl (2,2-dimethyl-7-(2-(trifluoromethoxy)phenyl)-1,2,3,4-tetrahydronaphthalen-1-yl)carbamate] | 0.0106 µM | 0.0574 µM
4 | CC1(C)CCc2ccc(-c3ccc(OC(F)F)cc3)cc2C1NC(=O)O[C@@H]1CN2CCC1CC2 (stereo partly drawn) [Example 164, (S)-quinuclidin-3-yl (7-(4-(difluoromethoxy)phenyl)-2,2-dimethyl-1,2,3,4-tetrahydronaphthalen-1-yl)carbamate] | 0.00923 µM | 0.0261 µM
5 | COCCOc1ccc(-c2ccc3c(c2)C(NC(=O)O[C@@H]2CN4CCC2CC4)C(C)(C)CC3)cc1 (stereo partly drawn) [Example 165, (S)-quinuclidin-3-yl (7-(4-(2-methoxyethoxy)phenyl)-2,2-dimethyl-1,2,3,4-tetrahydronaphthalen-1-yl)carbamate] | 0.0184 µM | 0.0243 µM
6 | COCCOc1cccc(-c2ccc3c(c2)C(NC(=O)O[C@@H]2CN4CCC2CC4)C(C)(C)CC3)c1 (stereo partly drawn) [Example 166, (S)-quinuclidin-3-yl (7-(3-(2-methoxyethoxy)phenyl)-2,2-dimethyl-1,2,3,4-tetrahydronaphthalen-1-yl)carbamate] | 0.0562 µM | 0.392 µM
7 | COCCOc1ccccc1-c1ccc2c(c1)C(NC(=O)O[C@@H]1CN3CCC1CC3)C(C)(C)CC2 (stereo partly drawn) [Example 167, (S)-quinuclidin-3-yl (7-(2-(2-methoxyethoxy)phenyl)-2,2-dimethyl-1,2,3,4-tetrahydronaphthalen-1-yl)carbamate] | 0.0196 µM | 0.103 µM
8 | COCOc1ccc(-c2ccc3c(c2)C(NC(=O)O[C@@H]2CN4CCC2CC4)C(C)(C)CC3)cc1 (stereo partly drawn) [Example 168, (S)-quinuclidin-3-yl (7-(4-(methoxymethoxy)phenyl)-2,2-dimethyl-1,2,3,4-tetrahydronaphthalen-1-yl)carbamate] | 0.0179 µM | 0.0707 µM
9 | COCOc1cccc(-c2ccc3c(c2)C(NC(=O)O[C@@H]2CN4CCC2CC4)C(C)(C)CC3)c1 (stereo partly drawn) [Example 169, (S)-quinuclidin-3-yl (7-(3-(methoxymethoxy)phenyl)-2,2-dimethyl-1,2,3,4-tetrahydronaphthalen-1-yl)carbamate] | 0.0409 µM | 0.443 µM
10 | COCOc1ccccc1-c1ccc2c(c1)C(NC(=O)O[C@@H]1CN3CCC1CC3)C(C)(C)CC2 (stereo partly drawn) [Example 170, (S)-quinuclidin-3-yl (7-(2-(methoxymethoxy)phenyl)-2,2-dimethyl-1,2,3,4-tetrahydronaphthalen-1-yl)carbamate] | 0.00941 µM | 0.039 µM
11 | O=C(NC1c2cc(-c3ccc(F)cc3)ccc2CCC12CC2)O[C@@H]1CN2CCC1CC2 (stereo partly drawn) [Example 171, (S)-quinuclidin-3-yl (7′-(4-fluorophenyl)-3′,4′-dihydro-1′H-spiro[cyclopropane-1,2′-naphthalen]-1′-yl)carbamate] | 0.00533 µM | 0.0949 µM
12 | O=C(NC1c2cc(-c3ccc(Cl)cc3)ccc2CCC12CC2)O[C@@H]1CN2CCC1CC2 (stereo partly drawn) [Example 172, (S)-quinuclidin-3-yl (7′-(4-chlorophenyl)-3′,4′-dihydro-1′H-spiro[cyclopropane-1,2′-naphthalen]-1′-yl)carbamate] | 0.00483 µM | 0.0679 µM
13 | O=C(NC1c2cc(-c3ccc(C(F)(F)F)cc3)ccc2CCC12CC2)O[C@@H]1CN2CCC1CC2 (stereo partly drawn) [Example 173, (S)-quinuclidin-3-yl (7′-(4-(trifluoromethyl)phenyl)-3′,4′-dihydro-1′H-spiro[cyclopropane-1,2′-naphthalen]-1′-yl)carbamate] | 0.00161 µM | 0.0189 µM
14 | O=C(NC1c2cc(-c3ccc(OC(F)(F)F)cc3)ccc2CCC12CC2)O[C@@H]1CN2CCC1CC2 (stereo partly drawn) [Example 174, (S)-quinuclidin-3-yl (7′-(4-(trifluoromethoxy)phenyl)-3′,4′-dihydro-1′H-spiro[cyclopropane-1,2′-naphthalen]-1′-yl)carbamate] | 0.00435 µM | 0.0393 µM
15 | O=C(NC1c2cc(-c3cccc(F)c3)ccc2CCC12CC2)O[C@@H]1CN2CCC1CC2 (stereo partly drawn) [Example 175, (S)-quinuclidin-3-yl (7′-(3-fluorophenyl)-3′,4′-dihydro-1′H-spiro[cyclopropane-1,2′-naphthalen]-1′-yl)carbamate] | 0.0148 µM | 0.167 µM
16 | O=C(NC1c2cc(-c3cccc(Cl)c3)ccc2CCC12CC2)O[C@@H]1CN2CCC1CC2 (stereo partly drawn) [Example 176, (S)-quinuclidin-3-yl (7′-(3-chlorophenyl)-3′,4′-dihydro-1′H-spiro[cyclopropane-1,2′-naphthalen]-1′-yl)carbamate] | 0.0149 µM | 0.211 µM
17 | O=C(NC1c2cc(-c3cccc(C(F)(F)F)c3)ccc2CCC12CC2)O[C@@H]1CN2CCC1CC2 (stereo partly drawn) [Example 177, (S)-quinuclidin-3-yl (7′-(3-(trifluoromethyl)phenyl)-3′,4′-dihydro-1′H-spiro[cyclopropane-1,2′-naphthalen]-1′-yl)carbamate] | 0.0235 µM | 0.17 µM
18 | O=C(NC1c2cc(-c3cccc(OC(F)(F)F)c3)ccc2CCC12CC2)O[C@@H]1CN2CCC1CC2 (stereo partly drawn) [Example 178, (S)-quinuclidin-3-yl (7′-(3-(trifluoromethoxy)phenyl)-3′,4′-dihydro-1′H-spiro[cyclopropane-1,2′-naphthalen]-1′-yl)carbamate] | 0.0227 µM | 0.274 µM
19 | O=C(NC1c2cc(-c3ccccc3F)ccc2CCC12CC2)O[C@@H]1CN2CCC1CC2 (stereo partly drawn) [Example 179, (S)-quinuclidin-3-yl (7′-(2-fluorophenyl)-3′,4′-dihydro-1′H-spiro[cyclopropane-1,2′-naphthalen]-1′-yl)carbamate] | 0.01 µM | 0.115 µM
20 | O=C(NC1c2cc(-c3ccccc3Cl)ccc2CCC12CC2)O[C@@H]1CN2CCC1CC2 (stereo partly drawn) [Example 180, (S)-quinuclidin-3-yl (7′-(2-chlorophenyl)-3′,4′-dihydro-1′H-spiro[cyclopropane-1,2′-naphthalen]-1′-yl)carbamate] | 0.00954 µM | 0.0991 µM
21 | O=C(NC1c2cc(-c3ccccc3C(F)(F)F)ccc2CCC12CC2)O[C@@H]1CN2CCC1CC2 (stereo partly drawn) [Example 181, (S)-quinuclidin-3-yl (7′-(2-(trifluoromethyl)phenyl)-3′,4′-dihydro-1′H-spiro[cyclopropane-1,2′-naphthalen]-1′-yl)carbamate] | 0.0127 µM | 0.0917 µM
22 | O=C(NC1c2cc(-c3ccccc3OC(F)(F)F)ccc2CCC12CC2)O[C@@H]1CN2CCC1CC2 (stereo partly drawn) [Example 182, (S)-quinuclidin-3-yl (7′-(2-(trifluoromethoxy)phenyl)-3′,4′-dihydro-1′H-spiro[cyclopropane-1,2′-naphthalen]-1′-yl)carbamate] | 0.0119 µM | 0.0404 µM

— patent publication US12338237B2, “Derivatives having 1,2,3,4-tetrahydronaphthalene moiety or pharmaceutically acceptable salt thereof and pharmaceutical compositions comprising the same” (YUHAN CORPORATION, priority 2019, dated 2025)
